According to article PMC5998061 (2018):

Tests used:
[1] = test system: MG aptamer construct for SHAPE (MG aptamer SHAPE construct) (RNA, aptamer) GGGCCUUCGGGCCAAGGAUCCCGACUGGCGAGAGCCAGGUAACGAAUGGAUCCUCGAUCCGGUUCGCCGGAUCCAAAUCGGGCUUCGGUCCGGUUC; experiment: SHAPE (NMIA), A30/A31 band ratio, Boltzmann fit; conditions: 100 mM KCl, 1 mM Mg-citrate; bicine pH 8.5; RNA outside empty myristoleic acid vesicles; MG incubation room temperature, NMIA 10 °C; apparent
[2] = test system: MG RNA aptamer (malachite green RNA aptamer) (RNA, aptamer) GGAUCCCGACUGGCGAGAGCCAGGUAACGAAUGGAUCC; experiment: fluorescence titration, Hill fit n = 1; conditions: 100 mM KCl, 1 mM Mg-citrate; 10 mM HEPES, 0.2 M bicine, pH 8.5, room temperature; no vesicles

midpoint [1]: 6.1 ± 0.7 µM | KD [2]: 2.5 ± 0.4 µM
Compound: CN(C)c1ccc(C(=C2C=CC(=[N+](C)C)C=C2)c2ccccc2)cc1
